Values after ≈ are worked out from the molar mass of the structure shown. Where two headings read alike, the source gives them in different places.
Legend:
Escherichia coli NC101 = test: Bacterial MIC assay (broth dilution); format: cell-based; conditions: read-out: MICs by compound
Description: (§1) MICs of compounds against different bacterial species were determined using a modified version of a broth microdilution protocol which has been previously reported.^1 Briefly, cultures of each species indicated were inoculated from frozen stocks in deoxygenated Wilkins-Chalgren Anaerobic Medium (WCAM) inside of an anerobic chamber with an 92.5% N2/5% CO2/2.5% H2 atmosphere. Cultures were grown for 24-48 hours in a 37° C. incubator at which point an OD600-measurement was taken for each culture and was accordingly diluted in fresh WCAM to an equivalent of OD600=0.01. Diluted cultures were then distributed into the wells of a clear, flat-bottom 384-well plate and the compound of interest was added to a final DMSO concentration of 2% (or DMSO only for positive controls). […] mineral oil (Millipore Sigma) was deposited on top of the cultures and plates were covered with a clear adhesive plate seal. Plates were incubated at 37° C. for 16 hours, at which point the OD600 of all wells was recorded on a SpectraMax M2 plate reader (Molecular Devices).

Klebsiella oxytoca = test: Bacterial MIC assay (broth dilution); format: cell-based; conditions: read-out: MICs by compound
Lactobacillus rhamnosus = test: Bacterial MIC assay (broth dilution); format: cell-based; conditions: Lacticaseibacillus rhamnosus, read-out: MICs by compound
Enterococcus faecalis = test: Bacterial MIC assay (broth dilution); format: cell-based; conditions: read-out: MICs by compound
Bifidobacterium longum = test: Bacterial MIC assay (broth dilution); format: cell-based; conditions: read-out: MICs by compound
purified ClbP = purified ClbP (Escherichia coli, UniProt Q0P7K6); test: ClbP fluorescence activity assay (in vitro); format: biochemical, Escherichia coli CFT073; conditions: for speed of reaching maximum potency, in words: slow-binding inhibition assay, 100 nM
Source text: Constructs and protein purification for in vitro assays. ClbP constructs described in this publication were derived from a previously described plasmid containing the Escherichia coli CFT073 ClbP sequence (GenBank ID: NP_754344.1) inserted between the NdeI and XhoI restriction sites of pET29b (Addgene plasmid #48244).^14 All in vitro experiments used a construct bearing a C-terminal 10×His tag. This longer polyhistidine-tag was obtained by extension of the previously described 6×His tag through site-directed mutagenesis. All site-directed mutations were introduced using the Quikchange mutagenesis protocol (Stratagene) and confirmed by Sanger DNA sequencing of the whole open reading frame. Plasmids were transformed into chemically competent C41(DE3) (Lucigen) cells and proteins were isolated as previously described.^34
ClbP fluorescence activity assay (in vitro). Assays were performed in a buffer containing 50 mM Tris, 200 mM NaCl, 0.02% w/v DDM at pH 8.0 with 25 nM purified ClbP and 25 μM fluorogenic substrate in a total volume of 20 μL.^34 Purified ClbP was defrosted on ice from stocks stored at −80° C. Stocks were diluted to 50 nM enzyme in assay buffer in the wells of a black, flat-bottom 384-well plate and the appropriate inhibitor in DMSO or DMSO was added to a final concentration of 1%. For experiments testing different inhibitor concentrations, reactions were allowed to sit for 1 hour at room temperature. For experiments testing different preincubation times, the inhibitor in DMSO was added to each reaction X minutes before initiating the reaction, where X is the time indicated on the x-axis for that sample. For experiments to test whether hydrolysis of the boronic ester was rate-limiting, the inhibitor was added to buffer with no enzyme present and allowed to sit at room temperature for the time indicated before adding the enzyme. In all cases, reactions were initiated by the addition of 10 μL, of buffer containing the 50 μM fluorogenic substrate to achieve a final concentration of 25 μM and pipetting once with a multichannel pipette to mix. Reaction progress was monitored in a plate reader (Bio-Tek Synergy HTX multimode plate reader) with an excitation filter of 360/40 nm and an emission filter of 440/20 nm. “% activity” was determined based on the measured relative fluorescence units (RFU) of each condition after 1 hour using the following formula: […]

[1] = target: E. coli BL21 overexpressing ClbP (Escherichia coli, UniProt Q0P7K6); test: ClbP fluorescence activity assay (live cells); format: cell-based
Description: ClbP fluorescence activity assay (live cells). One 5 mL starter culture each E. coli BL21 pET-29b-ClbP and pET-29b-ClbP-S95A were inoculated from frozen stocks and grown overnight at 37° C. in LB medium supplemented with 50 μg/ml kanamycin (LB+kan). Overnight cultures were diluted 1:100 in fresh LB+kan and incubated at 37° C. to an OD600 of 0.3, at which point protein expression was induced by the addition of 500 μM isopropyl β-D-1-thiogalactopyranoside (IPTG) and cultures were moved to 15° C. for 4 hours. Cultures were then aliquoted in a black 384-well plate and the appropriate concentration of inhibitor was added as a DMSO stocks to a final concentration of 1% DMSO in a volume of 30 μL. Reactions were initiated by the addition of 10 μL of LB+kan+IPTG containing the fluorogenic substrate (final concentration=100 μM). Plastes were incubated at 25° C. with intermittent shaking while taking regular fluorescence measurements in a Bio-Tek Synergy HTX multimode plate reader with an excitation filter of 360/40 nm and an emission filter of 440/20 nm. “% activity” was determined based on the formula above using RFU measurements after 7 hours.

[2] = test system: a variety of bacterial strains from common gut phyla, including E. coli; test: Turbidity MIC assay, all strains together; format: cell-based; conditions: Escherichia coli; all strains tested; upper limit tested 200 μM; read-out: MICs in liquid culture
Source text: Compound 3 is an inhibitor of colibactin-associated genotoxicity. Since colibactin is produced in the context of the gut microbiota, it is essential to understand how 3 can affect other members of this community and whether it remains an effective inhibitor under these conditions. […] A turbidity assay was used to determine minimum inhibitory concentrations (MICs) in liquid culture of 1-4 against a variety of bacterial strains from common gut phyla, including E. coli (Table 3).
as §1

ClbP = test: LC-MS quantitation of N-myristoyl-D-Asn produced by pks+ E. coli; format: cell-based, E. coli BW25113 BACpks; conditions: pks+ E. coli (BW pks), versus DMSO
Description: LC-MS quantitation of N-myristoyl-D-Asn produced by pks^+ E. coli. One 5 mL starter culture each of E. coli BW25113 BACpks and E. coli BW25113 BACpksΔclbP was inoculated from frozen stocks and grown overnight at 37° C. in LB medium supplemented with 35 μg/ml chloramphenicol (LB+cam). Overnights were diluted 1:100 in fresh LB+cam+1% DMSO with the appropriate concentration of inhibitor and grown for 20 hours at 37° C. in a deep well plate in a shaking incubator. A 500 μL aliquot was taken from each sample, flash frozen in liquid nitrogen and lyophilized to dryness. Lyophilized pellets were extracted with 500 μL LC-MS grade methanol which contained 100 nM d27-N-myristoyl-D-asparagine as an internal standard, prepared as previously described, and vortexed for 30 seconds. After centrifugation at 16,500×g for 10 minutes in a tabletop microcentrifuge, supernatants were transferred to fresh 1.5 mL tubes and stored at −20° C. overnight. Samples were centrifuged again, and the supernatants analyzed by LC-MS/MS on a Waters Xevo TQ-S UPLC-triple quadrupole mass spectrometer using an Agilent Poroshell 120 EC-C18 column (2.7 μm, 4.6 mm×50 mm). […]

[3] = test system: FANCD2 in HeLa cell extracts; test: Western blot for FANCD2; format: cell-based, human; conditions: 0.5 μg/mL mitomycin C or 7.5 μg/mL cisplatin, 4 hours, no bacteria
Description: Western Blot for FANCD2. Infections were carried out as described above. For conditions which involved other small molecules, no bacteria were introduced during the infection and cells were treated with either 0.5 μg/mL mitomycin C (MMC) or 7.5 μg/mL cisplatin under the same conditions for 4 hours. 20 hours after infection, cells were lysed directly in the culture wells (Lysis buffer: 50 mM Tris, (pH 8.0), 150 mM NaCl, 1% Triton X-100, 0.5% Sodium deoxycholate, 0.05% sodium dodecylsulfate, 1 mM MgSO4, SIGMAFAST Protease inhibitor mix, 100 U/mL benzonase (Millipore-Sigma). Lysates were then spun down at 16,000×g to remove particulates and the supernatant was mixed 1:1 with 2X Laemmli sample buffer (Bio-Rad) containing 50 mg/mL dithiothreitol (DTT). Samples were then heated at 70° C. for 10 minutes and run on an SDS-PAGE gel (3-8% Tris-Acetate Novex gel, Invitrogen) at 150 V for 1.5 hours at 4° C. Bands were then transferred to PVDF membranes (100 V, 1 hour at 4° C.) and blocked with 10% skim milk powder in TBST buffer at 4° C. overnight. Blots were probed sequentially with either mouse anti-actin (1.5 μg/mL) or mouse anti-FANCD2 (0.1 μg/mL) primary antibodies (Thermo Fisher Scientific, Catalog #MA511869 and MA123347), followed by a peroxidase-conjugated goat anti-mouse secondary antibody (Jackson ImmunoResearch product 115-035-003, 0.08 μg/mL). Each probing step was conducted for 90 minutes at room temperature n 2.5% skim milk powder in TBST. Before imaging, blots were washed 3×15 minutes each in TBST […]. Blots were imaged using the SuperSignal™ West Pico PLUS Chemiluminescent Substrate (Thermo Fisher Scientific) kit following the manufacturer's instructions and imaged using an Azure Biosystems c300 imager.

[4] = anaerobic, OD600 after 15 hours

| Compound | MIC (Escherichia coli NC101; Escherichia coli NC101, anaerobic, OD600 after 15 hours) | MIC (Klebsiella oxytoca; [4]) | MIC (Lactobacillus rhamnosus; Lactobacillus rhamnosus, anaerobic, OD600 after 15 hours) | MIC (Enterococcus faecalis; [4]) | MIC (Bifidobacterium longum; [4]) | IC50 (purified ClbP) | IC50 [1] | MIC (Escherichia coli NC101; Escherichia coli, NC101, 15 h) | MIC (Klebsiella oxytoca; 15 h) | MIC (Lactobacillus rhamnosus; 15 h) | MIC (Enterococcus faecalis; 15 h) | MIC (Bifidobacterium longum; 15 h) | MIC [2] | speed of reaching maximum potency, in words (purified ClbP) | quantity of N-myristoyl-D-Asn prodrug released (ClbP) | abundance of FANCD2-Ub in HeLa cells [3] |
| --- | --- | --- | --- | --- | --- | --- | --- | --- | --- | --- | --- | --- | --- | --- | --- | --- |
| O=C(N[C@H](CO)[C@H](O)c1ccc([N+](=O)[O-])cc1)C(Cl)Cl [CAM, Chloramphenicol, reference compound] | 25 µM (≈ 8.08 µg/mL) | 6.25 µM (≈ 2.02 µg/mL) | 25 µM (≈ 8.08 µg/mL) | 50 µM (≈ 16.2 µg/mL) | 12.5 µM (≈ 4.04 µg/mL) |  |  |  |  |  |  |  |  |  |  |  |
| CCCCCC(=O)N[C@H](CC(N)=O)B1OC(C)(C)C(C)(C)O1 [Compound 1] |  |  |  |  |  | 40 nM | 5.6 nM | > 200 µM | > 200 µM | > 200 µM | > 200 µM | > 200 µM | > 200 µM |  |  |  |
| CC1(C)OB([C@@H](CC(N)=O)NC(=O)c2ccc3ccccc3c2)OC1(C)C [Compound 2] |  |  |  |  |  | 34 nM | 7.2 nM | > 200 µM | > 200 µM | > 200 µM | > 200 µM | > 200 µM | > 200 µM | achieved their maximum potency faster than compound 4 |  |  |
| CC1(C)OB([C@@H](CC(N)=O)NC(=O)c2ccccc2)OC1(C)C [Compound 4] |  |  |  |  |  | 69 nM | 27 nM | > 200 µM | > 200 µM | > 200 µM | > 200 µM | > 200 µM | > 200 µM | showed a significant lag | slightly lower potency than the others |  |
| N.N.[Cl][Pt][Cl] [cisplatin, reference compound] |  |  |  |  |  |  |  |  |  |  |  |  |  |  |  | increase in abundance of FANCD2-Ub |
| CO[C@@]12[C@H](COC(N)=O)C3=C(C(=O)C(C)=C(N)C3=O)N1C[C@@H]1N[C@@H]12 [mitomycin C, reference compound] |  |  |  |  |  |  |  |  |  |  |  |  |  |  |  | increase in abundance of FANCD2-Ub |

Reference: patent publication US12115176B2, “Methods and compositions relating to ClbP inhibition” (PRESIDENT AND FELLOWS OF HARVARD COLLEGE, priority 2021, dated 2024)
